The source of these data is ChEMBL document CHEMBL1130929, “Conformationally restricted analogues of nicotine and anabasine” (Bioorg Med Chem Lett, 1998).

Structures are written as SMILES.

A short description of experiment [1]: In vitro ability to displace tritiated nicotine from rat brain binding sites, and calcium flux (c.f). A general note: A change in cytosolic calcium serves as a functional read-out for many receptors and channels.
The species named for experiment [2] is Rattus norvegicus. In words: In vitro ability to release dopamine from rat striatal slices. It counts as functional.
The target of experiment [3] is T1, Neuronal acetylcholine receptor; alpha2/beta4 (Homo sapiens, UniProt P30926+Q15822). The experiment can be described thus: (§1) Compound was evaluated for agonist activity against activated human recombinant Nicotinic acetylcholine receptor alpha2-beta4 in Xenopus Oocytes. It counts as functional, cell-based.
The target in experiment [4] is T1, Neuronal acetylcholine receptor; alpha2/beta4. The experiment is described as §1. It counts as functional, cell-based. This is another data set of the same source.
Experiment [5] can be described thus: In vitro agonist activity against activated human recombinant alpha3-beta4 neuronal acetylcholine receptors (nAChR) in Xenopus Oocytes. It counts as functional, cell-based.
Experiment [6] has as its target Neuronal acetylcholine receptor; alpha3/beta4 (Homo sapiens) (UniProt P30926+P32297). The experiment can be described thus: In vitro agonist activity against activated human recombinant Nicotinic acetylcholine receptor alpha3-beta4 in Xenopus Oocytes. It counts as functional, cell-based.
In experiment [7] the target is T2, Neuronal acetylcholine receptor; alpha4/beta4 (Homo sapiens, UniProt P30926+P43681). In words: Compound was evaluated for its agonist activity against activated human recombinant Nicotinic acetylcholine receptor alpha4-beta4 in Xenopus Oocytes. It counts as functional, cell-based.
A short description of experiment [8]: In vitro ability to displace tritiated nicotine from rat brain binding sites.
Experiment [9] addresses T3, Neuronal acetylcholine receptor; alpha4/beta2 (Homo sapiens, UniProt P17787+P43681). In words: Compound was evaluated for agonist activity against activated human recombinant aNicotinic acetylcholine receptor alpha4-beta2 in Xenopus Oocytes. It counts as functional, cell-based.
Experiment [10] has as its target T3, Neuronal acetylcholine receptor; alpha4/beta2. In words: Compound was evaluated for agonist activity against activated human recombinant Nicotinic acetylcholine receptor alpha4-beta2 in Xenopus Oocytes. It counts as functional, cell-based.
For experiment [11], the species on record is Rattus norvegicus. In words: Compound was tested for its ability to release dopamine from rat striatal slices at 300 uM. It counts as functional.
In experiment [12] the target is T2, Neuronal acetylcholine receptor; alpha4/beta4. In words: Compound was evaluated for agonist activity against activated human recombinant Nicotinic acetylcholine receptor alpha4-beta4 in Xenopus Oocytes. It counts as functional, cell-based.

T3 sequence (P17787 whole entry): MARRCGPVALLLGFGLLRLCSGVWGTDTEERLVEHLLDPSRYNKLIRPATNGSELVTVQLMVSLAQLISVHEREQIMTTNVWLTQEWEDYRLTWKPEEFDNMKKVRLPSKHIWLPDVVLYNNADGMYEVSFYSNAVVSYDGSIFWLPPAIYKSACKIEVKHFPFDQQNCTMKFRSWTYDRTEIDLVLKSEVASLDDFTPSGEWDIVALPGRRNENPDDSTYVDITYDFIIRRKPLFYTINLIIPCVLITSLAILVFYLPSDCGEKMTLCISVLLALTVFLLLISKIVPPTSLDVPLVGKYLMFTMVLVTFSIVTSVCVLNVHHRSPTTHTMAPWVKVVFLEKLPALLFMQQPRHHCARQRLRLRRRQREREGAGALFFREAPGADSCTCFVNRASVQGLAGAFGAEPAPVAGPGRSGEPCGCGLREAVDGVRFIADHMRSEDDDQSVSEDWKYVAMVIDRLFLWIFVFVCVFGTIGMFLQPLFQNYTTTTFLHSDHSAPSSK
T3 sequence (P43681 whole entry): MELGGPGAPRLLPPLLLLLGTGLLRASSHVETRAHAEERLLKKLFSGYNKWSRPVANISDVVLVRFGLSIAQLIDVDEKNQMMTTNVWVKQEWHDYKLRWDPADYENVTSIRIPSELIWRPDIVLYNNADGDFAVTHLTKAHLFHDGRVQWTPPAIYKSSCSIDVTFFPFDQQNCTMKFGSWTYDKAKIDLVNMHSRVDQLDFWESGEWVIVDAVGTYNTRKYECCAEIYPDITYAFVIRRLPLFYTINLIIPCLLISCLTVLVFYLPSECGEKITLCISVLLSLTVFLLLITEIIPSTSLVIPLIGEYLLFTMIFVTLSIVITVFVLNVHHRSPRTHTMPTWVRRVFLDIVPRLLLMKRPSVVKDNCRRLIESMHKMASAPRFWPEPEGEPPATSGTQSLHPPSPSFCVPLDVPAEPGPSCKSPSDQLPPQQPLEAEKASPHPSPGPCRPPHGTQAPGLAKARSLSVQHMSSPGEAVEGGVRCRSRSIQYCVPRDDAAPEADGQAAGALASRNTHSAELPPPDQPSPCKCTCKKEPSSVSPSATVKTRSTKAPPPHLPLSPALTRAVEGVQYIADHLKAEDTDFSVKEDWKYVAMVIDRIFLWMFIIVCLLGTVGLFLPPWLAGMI
T1 sequence (P30926 whole entry): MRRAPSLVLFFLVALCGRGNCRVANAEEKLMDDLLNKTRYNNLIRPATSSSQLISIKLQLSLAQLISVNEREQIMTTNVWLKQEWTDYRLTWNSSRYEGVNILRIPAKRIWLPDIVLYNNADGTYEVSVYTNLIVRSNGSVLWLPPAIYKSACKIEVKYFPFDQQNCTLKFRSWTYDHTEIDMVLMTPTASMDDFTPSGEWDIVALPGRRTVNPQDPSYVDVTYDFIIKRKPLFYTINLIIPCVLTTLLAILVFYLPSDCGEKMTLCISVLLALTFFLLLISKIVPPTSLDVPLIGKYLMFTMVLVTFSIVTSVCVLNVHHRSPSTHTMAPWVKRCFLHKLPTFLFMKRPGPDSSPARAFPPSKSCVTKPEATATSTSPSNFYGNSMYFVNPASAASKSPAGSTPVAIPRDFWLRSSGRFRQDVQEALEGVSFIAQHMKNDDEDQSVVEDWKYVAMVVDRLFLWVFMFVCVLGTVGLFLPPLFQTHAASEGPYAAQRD
T1 sequence (Q15822 whole entry): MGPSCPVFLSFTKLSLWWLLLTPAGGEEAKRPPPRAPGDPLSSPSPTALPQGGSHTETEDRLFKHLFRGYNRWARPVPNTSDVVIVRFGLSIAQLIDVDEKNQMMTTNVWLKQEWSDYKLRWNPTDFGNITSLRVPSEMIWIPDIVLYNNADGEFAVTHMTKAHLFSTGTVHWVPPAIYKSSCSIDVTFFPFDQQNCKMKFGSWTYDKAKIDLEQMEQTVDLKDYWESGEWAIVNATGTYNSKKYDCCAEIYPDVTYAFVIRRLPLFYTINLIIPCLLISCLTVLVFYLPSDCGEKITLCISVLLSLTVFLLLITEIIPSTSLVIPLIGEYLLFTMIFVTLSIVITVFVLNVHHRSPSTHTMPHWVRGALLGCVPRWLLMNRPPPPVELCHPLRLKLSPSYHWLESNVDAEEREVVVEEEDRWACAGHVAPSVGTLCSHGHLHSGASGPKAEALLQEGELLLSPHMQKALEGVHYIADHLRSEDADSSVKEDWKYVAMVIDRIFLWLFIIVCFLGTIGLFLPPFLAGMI
T2 sequence (P30926 whole entry): as the sequence (P30926 whole entry) above
T2 sequence (P43681 whole entry): as the sequence (P43681 whole entry) above

As to `CN1CCC[C@H]1c1cccnc1` [NICOTINE], the IC50 – broadly, the midpoint of a concentration-inhibition curve – in experiment [1] was found to be 4 nM.
For `c1cc2c(cn1)C1NCCC1CC2` (stereo not drawn), the Efficacy in the experiment listed under Rattus norvegicus [2] is recorded as 56%. The IC50 in experiment [1] came to 510 nM.
Regarding `COc1cc2c(cn1)C1NCCC1CC2` (stereo not drawn), the EC50 (commonly the concentration giving half of the maximal effect) in experiment [3] is 87 µM; in [5] it was 81 µM; in experiment [7], 32 µM; in experiment [9], 3 µM. Further, the Efficacy in [4] is 22%; in [6], 5%; in [10], 8%; in the experiment filed under Rattus norvegicus [11], 73; in experiment [12], 44%. In experiment [8], this compound returned a 50% inhibitory concentration (IC50) of 1900 nM.
